The source of these data is patent US20090311246A1, “Method of Enhancing Remyelination in Demyelinating Diseases of the Central Nervous System” (priority 2008, published 2009).

What all share (type): binding
In test [1] the test system is sera from SFV-infected B6 mice. The note with it: for Dh / D0 (Ratio): OD of highest day (day 15 or 21) over day 0, SFV-infected sera; for Dh−D0 (difference): OD of highest day minus day 0, SFV-infected sera; for Net change in the levels of antibody (ΔOD), D7-9 / Net change in the levels of antibody (ΔOD), D14-16 / Net change in the levels of antibody (ΔOD), D21-23 / Net change in the levels of antibody (ΔOD), D31-35: SFV-infected mice sera, day 0 OD subtracted; for Net change in the levels of antibody (ΔOD), D7-9: days 7-9 pi; for Net change in the levels of antibody (ΔOD), D14-16: days 14-16 pi; for Net change in the levels of antibody (ΔOD), D21-23: days 21-23 pi; for Net change in the levels of antibody (ΔOD), D31-35: days 31-35 pi; for Reactivity of sera from SFV-infected B6 mice with the antigen in ELISA: vs day 0. Here is the method:
To measure the antibody response of both WT and γδ KO mice against SFV and two of the peptides of the SFV envelope protein, E2, an indirect ELISA was performed. Sera were pooled from 4-6 SFV-infected WT, and 3 KO, mice on days 0, 7, 14, 21 and 35 pi. Briefly, Immunolon 2HB 96 well microtiter plates (VWR, Bridge Port, N.J.) were coated with 1 μg/well of each antigen in 100 μl/well carbonate buffer overnight at room temperature. After washing, the plates were blocked and serum samples were added. […] After washing, biotinylated goat anti-mouse Igs (BD Pharmingen, Torreyana, Calif.), Strepavidin conjugated to Horse Radish Peroxidase (Vector Laboratories, Burlingame, Calif.), and OPD substrate (Sigma, St. Louis, Mo.) were used, as previously described (4, 9). […] Values were considered to be positive when they were >0.3 OD units and exceeded the mean value plus three standard deviations for antibody response on day 0 pi of mice of the same strain. […]
In some instances day 0 OD values were high, thus making the differences appear small. Therefore, to account for such discrepancy, we also determined the ratio of the highest day (day 15 or 21) over day 0.
On the technique in general: An ELISA detects its analyte on a solid surface through an enzyme-linked reagent.

Test [2] has as its system Rabbit Anti-SFV polyclonal antibody. The test is described as follows: Indirect ELISA of rabbit anti-SFV polyclonal IgG against viral and myelin antigens. The following applies: for Rabbit Anti-SFV Ab, OD at 490 nm: 10^−2 diluted, indirect ELISA; for OD Difference: Rabbit Anti-SFV Ab minus Normal Rabbit Serum; for Immunoreactivity of IgG fraction of serum from rabbits immunized with UV-inactivated SFV: ELISA. As to the method:
The total IgG fraction was commercially prepared (Strategic Biosolutions, Ramona, Calif.) from pooled sera of 3 rabbits immunized once with UV-inactivated SFV (A774 strain) emulsified in CFA and boosted 3 times with antigen in IFA at weeks 3, 5, and 7. The IgG fraction of the pooled antisera was purified by ion-exchange chromatography and contained 8.7 mg IgG/ml of PBS. Antibody activities to SFV and peptides of SFV, to E2, and to recombinant ® MOG and its peptides were confirmed by ELISA. Normal rabbit IgG, isolated from pooled normal rabbit sera by ion-exchange chromatography (Signa Chemical Co., St. Louis, Mo.), was dissolved in saline. Protein concentration was determined by the Bradford assay (Sigma), using normal rabbit IgG as the standard. The IgG solutions were diluted to 3 mg protein/ml in saline and sterilized by passage through a 0.22 μm filter (Millipore Corp., Bedford, Mass.).
To measure the antibody response of both WT and γδ KO mice against SFV and two of the peptides of the SFV envelope protein, E2, an indirect ELISA was performed. Sera were pooled from 4-6 SFV-infected WT, and 3 KO, mice on days 0, 7, 14, 21 and 35 pi. Briefly, Immunolon 2HB 96 well microtiter plates (VWR, Bridge Port, N.J.) were coated with 1 μg/well of each antigen in 100 μl/well carbonate buffer overnight at room temperature. After washing, the plates were blocked and serum samples were added. […] After washing, biotinylated goat anti-mouse Igs (BD Pharmingen, Torreyana, Calif.), Strepavidin conjugated to Horse Radish Peroxidase (Vector Laboratories, Burlingame, Calif.), and OPD substrate (Sigma, St. Louis, Mo.) were used, as previously described (4, 9). […] Values were considered to be positive when they were >0.3 OD units and exceeded the mean value plus three standard deviations for antibody response on day 0 pi of mice of the same strain.
The polyclonal rabbit anti SFV antibody was commercially prepared (Strategic Biosolutions, Ramona, Calif.) from pooled sera of 3 rabbits, immunized once with UV-inactivated SFV (A774 strain) emulsified in CFA and boosted 3 times with antigen in IFA at weeks 3, 5, and 7.

Another test deals with Normal Rabbit Serum. The test is described as follows: Indirect ELISA of normal rabbit serum/IgG against viral and myelin antigens. The note with it: 10^−2 diluted.
The test system of test [3] is sera from SFV-infected WT and γδ KO mice. The test is described as follows: ELISA of sera from SFV-infected WT and γδ KO mice against SFV, E2 peptides, PPD and rMOG. The following applies: WT and KO, days 7 to 35 pi.

Consider “NH2-MEVGWYRSPFSRVVHLYRNGK-OH (H-MEVGWYRSPFSRVVHLYRNGK-OH) [MOG 35-55, myelin oligodendrocyte glycoprotein (MOG) peptide 35-55]”, for which, in test [1], the “Dh / D0 (Ratio)” value was 5.11; the “Dh−D0 (difference)” value was determined as 0.362; the “Net change in the levels of antibody (ΔOD), D7-9” value (“Net change … (ΔOD), D7-9” below) is 055 ± 0.08 ΔOD; the “Net change in the levels of antibody (ΔOD), D14-16” value (“Net change … (ΔOD), D14-16” for short) is given as 0.78 ± 0.08 ΔOD. In test [1], the “Net change in the levels of antibody (ΔOD), D21-23” value (“Net change … (ΔOD), D21-23” below) is given as 0.82 ± 0.05 ΔOD and the “Net change in the levels of antibody (ΔOD), D31-35” value (shortened to “Net change … (ΔOD), D31-35”) is 0.78 ± 0.07 ΔOD. Besides, in test [2], the “Rabbit Anti-SFV Ab, OD at 490 nm” value was determined as 0.184 OD and the “OD Difference” value worked out at 0.177 OD. For the same molecule, in the test on Normal Rabbit Serum, the “Normal Rabbit Serum, OD at 490 nm” value was 0.007 OD.

“THYGSLPQKSQR (GSGKDSHTRTTH) [MBP 64-75, myelin basic protein peptide 64-75]”: in test [1], the “Dh / D0 (Ratio)” value came out at 2.93 and the “Dh−D0 (difference)” value was found to be 0.375.

For the molecule “EGVNDNEEGFFSAR [FB, Fibrinopeptide B, 1-14, negative control peptide]”, in test [1], the “Dh / D0 (Ratio)” value is reported as 1.26; the “Dh−D0 (difference)” value is 0.068; the “Net change … (ΔOD), D7-9” value is 0.06 ± 0.07 ΔOD; the “Net change … (ΔOD), D14-16” value is on record as 0.05 ± 0.07 ΔOD. Moreover, in test [1], the “Net change … (ΔOD), D21-23” value is given as 0.05 ± 0.08 ΔOD and the “Net change … (ΔOD), D31-35” value was 0.08 ± 0.09 ΔOD.

On to “GKDSHTRTTHYGS [MBP 56-68, mouse MBP 56-68 peptide, mimicked by E2 137-151]”, for which, in test [1], the “Dh / D0 (Ratio)” value turned out to be 5.37; the “Dh−D0 (difference)” value was found to be 0.824; the “Net change … (ΔOD), D7-9” value was 1.10 ± 0.04 ΔOD; the “Net change … (ΔOD), D14-16” value was 0.83 ± 0.10 ΔOD. Also, in test [1], the “Net change … (ΔOD), D21-23” value is listed as 1.07 ± 0.12 ΔOD; the “Net change … (ΔOD), D31-35” value is on record as 0.55 ± 0.18 ΔOD; the “Reactivity of sera from SFV-infected B6 mice with the antigen in ELISA” value (“Reactivity of sera … in ELISA” for short) is reported as “reacted significantly”. In addition, in test [2], the “Rabbit Anti-SFV Ab, OD at 490 nm” value worked out at 0.852 OD; the “Immunoreactivity of IgG fraction of serum from rabbits immunized with UV-inactivated SFV” value was “Cross-reactivity”; the “OD Difference” value stood at 0.691 OD. Moreover, the “Normal Rabbit Serum, OD at 490 nm” value with Normal Rabbit Serum is on record as 0.195 OD.

In the case of DEAELPSRISPGKNA [MOG 18-32], in test [1], the “Dh / D0 (Ratio)” value is reported as 3.2; the “Dh−D0 (difference)” value was 0.919; the “Net change … (ΔOD), D7-9” value is given as 0.34 ± 0.31 ΔOD; the “Net change … (ΔOD), D14-16” value is 0.75 ± 0.23 ΔOD. In addition, in test [1], the “Net change … (ΔOD), D21-23” value is reported as 0.91 ± 0.15 ΔOD; the “Net change … (ΔOD), D31-35” value is reported as 0.91 ± 0.36 ΔOD; the “Reactivity of sera … in ELISA” value is recorded as “reacted significantly”. Besides, in test [2], the “Rabbit Anti-SFV Ab, OD at 490 nm” value was 0.907 OD; the “Immunoreactivity of IgG fraction of serum from rabbits immunized with UV-inactivated SFV” value is reported as “Cross-reactivity”; the “OD Difference” value stood at 0.647 OD. In addition, the “Normal Rabbit Serum, OD at 490 nm” value in the test with Normal Rabbit Serum was found to be 0.260 OD.

B1: Bovine MBP: bovine myelin basic protein (protein)
chain: AAQKRPSQRSKYLASASTMDHARHGFLPRHRDTGILDSLGRFFGSDRGAPKRGSGKDGHHAARTTHYGSLPQKAQGHRPQDENPVVHFFKNIVTPRTPPPSQGKGRGLSLSRFSWGAEGQKPGFGYGGRASDYKSAHKGLKGHDAQGTLSKIFKLGGRDSRSGSPMARR
Regarding B1, in test [2], the “Rabbit Anti-SFV Ab, OD at 490 nm” value is on record as 0.622 OD and the “OD Difference” value is 0.339 OD. Further, the “Normal Rabbit Serum, OD at 490 nm” value in the test with Normal Rabbit Serum was determined as 0.283 OD.

B2: MBP Protein: myelin basic protein (protein, UniProt P02686 1-304, looked up)
Myelin basic protein: MGNHAGKRELNAEKASTNSETNRGESEKKRNLGELSRTTSEDNEVFGEADANQNNGTSSQDTAVTDSKRTADPKNAWQDAHPADPGSRPHLIRLFSRDAPGREDNTFKDRPSESDELQTIQEDSAATSESLDVMASQKRPSQRHGSKYLATASTMDHARHGFLPRHRDTGILDSIGRFFGGDRGAPKRGSGKDSHHPARTAHYGSLPQKSHGRTQDENPVVHFFKNIVTPRTPPPSQGKGRGLSLSRFSWGAEGQRPGFGYGGRASDYKSAHKGFKGVDAQGTLSKIFKLGGRDSRSGSPMARR
Take B2: in test [1], the “Dh / D0 (Ratio)” value came out at 2.42; the “Dh−D0 (difference)” value is 0.967; the “Net change … (ΔOD), D7-9” value is given as 0.53 ± 0.11 ΔOD; the “Net change … (ΔOD), D14-16” value was 1.04 ± 0.24 ΔOD. In test [1], the “Net change … (ΔOD), D21-23” value was 1.12 ± 0.31 ΔOD; the “Net change … (ΔOD), D31-35” value is given as 1.00 ± 0.32 ΔOD; the “Reactivity of sera … in ELISA” value is “reacted significantly”.

B3: rMOG: recombinant MOG (protein, UniProt Q16653 30-247, looked up)
Myelin-oligodendrocyte …: GQFRVIGPRHPIRALVGDEVELPCRISPGKNATGMEVGWYRPPFSRVVHLYRNGKDQDGDQAPEYRGRTELLKDAIGEGKVTLRIRNVRFSDEGGFTCFFRDHSYQEEAAMELKVEDPFYWVSPGVLVLLAVLPVLLLQITVGLIFLCLQYRLRGKLRAEIENLHRTFDPHFLRVPCWKITLFVIVPVLGPLVALIICYNWLHRRLAGQFLEELRNPF
Turning to B3, in test [2], the “Rabbit Anti-SFV Ab, OD at 490 nm” value came to 0.359 OD and the “OD Difference” value is listed as 0.146 OD. Moreover, the “Reactivity of sera from both SFV-infected WT and KO groups” value in test [3] is “twice as the background level”. The “Normal Rabbit Serum, OD at 490 nm” value with Normal Rabbit Serum is reported as 0.213 OD.

B4: MOG Protein: myelin oligodendrocyte glycoprotein (protein, UniProt Q16653 30-247, looked up)
Myelin-oligodendrocyte …: B3 Myelin-oligodendrocyte …
On to B4, for which, in test [1], the “Dh / D0 (Ratio)” value turned out to be 4.1; the “Dh−D0 (difference)” value stood at 0.89; the “Net change … (ΔOD), D7-9” value is on record as 0.47 ± 0.21 ΔOD; the “Net change … (ΔOD), D14-16” value was 0.84 ± 0.18 ΔOD. In test [1], the “Net change … (ΔOD), D21-23” value is 0.91 ± 0.11 ΔOD; the “Net change … (ΔOD), D31-35” value is recorded as 0.96 ± 0.07 ΔOD; the “Reactivity of sera … in ELISA” value is on record as “reacted significantly”.
